Where no end group is shown, it is not given here.
How the values were obtained:
[1] = system: embryonic mouse neural stem cells (NSCs); assay: Haptotactic migration assay in injury conditions (activated astroglial monolayer); type: cell-based; conditions: 100 fM in lower compartment; TGFβ1 and scratch-activated astrocyte monolayer; 24 hrs
Procedure: The NRP of SEQ ID NO: 1 was tested for migration-inducing/chemoattractive activity on mouse neural stem cells in a haptotactic migration assay in injury conditions, as described below.
P1 (postnatal day 1) Wistar or Sprague Dawley rats were sacrificed by decapitation. Cortical hemispheres were removed and collected into separate tubes containing 4 ml DMEM—1 cortex per tube. The tissue was mechanically triturated. Cells were transferred into medium using a sterile pipette and filtered through a 100 um cell strainer into a 50 ml centrifuge tube. Each tube was stocked up to 50 ml with DMEM. The tubes were centrifuged for 5 mins at 350×g at 22° C. The cells were resuspended in 40 ml of DMEM+10% FBS. The cells were then seeded into a 12-well plate+5 nM ocadaic acid (to remove neurons by inducing apoptotic cell death) and incubated at 37° C./10% CO2 for 24 hrs […]. The medium+FBS was replaced after 1 day with fresh DMEM+10% FBS. The cell growth was monitored until confluency (14-18 days).
Induction of injuries to the astrocytic monolayer was accomplished using the pharmacological agent transforming growth factor β1 (TGFβ1) and simultaneous mechanical scratching of the monolayer in order to activate astrocytics. […]
Migrated stem cell number of labelled cells were analysed after 24 hrs by a fluorescence-based computerized imaging system (Discovery-1).

[2] = system: mouse neural stem cells (MEB-5 cells); assay: Haptotactic migration assay, physiological (injury-free) conditions; type: cell-based; conditions: 0.1 ng/ml NRP coating
Procedure: An NRP was tested for migration-inducing/chemoattractive activity on mouse neural stem cells in a haptotactic migration assay as described below.
Control wells of Transwell plates (Corning) with 12 μm pore size were coated in 1.5 ml of the BSA/PBS vehicle. Remaining plates were coated using 0.1 ng/ml of NRP (SEQ ID NO: 1) (prepared in PBS containing 10 ug/ml BSA).
Laminin (7 μg/ml) was used as extracellular matrix (ECM) coating for mouse primary stem cells. The matrix was incubated at 37° C.; 5% C02 for 2 hrs at room temperature. The cells were seeded onto the inserts (30,000 cells per well). Plates were fixed at 1-2 days in vitro (DIV).
A 5 ug/mL PDL/PLL mixture (in PBS) was used to coat inserts. Subsequently the inserts were rinsed with MilliQ water.
Inserts were discarded and wells fixed in successive dilutions of PFA (0.4, 1.2, 3 and 4%) for 3-5 min in each dilution. […] The wells were rinsed and stored in PBS until counting.

JAr cells = assay: TNF-alpha-induced cytotoxicity in immortalized trophoblast cell line; type: cell-based, human
Procedure: Choriocarcinoma cells (Jeg-3, BeWo and Jar; ATCC) were cultured under similar conditions in DMEM/F-12 cell culture medium in 75 cm2 flasks with filter tops (Raylab). Cells were allowed to adhere and grow in an incubator equilibrated in 95%/5% air/CO2 to approximately 70% confluence, before being split every 2 to 3 days by addition of 2 ml of 1× concentrated trypsin-EDTA. After a centrifugation step for 5 min at 1100 rpm, cells were resuspended in 15 ml of fresh DMEM/F-12 in sterile tissue flasks and placed back in the incubator.
In this study, we plated 50,000 JAr cells per well. JAr cells are an immortalized line of cells derived from a human choriocarcinoma cells. Wells were pre-incubated with NRP-5RG D6A (SEQ ID NO: 1) at the concentrations indicated in FIG. 12, or epidermal growth factor (EGF; 5 ng/ml) for 2 hours. Subsequently, cells were exposed to the cultures for 48 hours to TNF-alpha (5 ng/ml) and interferon-gamma (5 ng/ml) to induce stress.

cerebellar microexplants = assay: Cerebellar microexplant survival assay (3-NP/glutamate injury); type: cell-based, Wistar rat; conditions: 100 fM; administered simultaneously with toxins (0.5 mM 3-NP, 0.5 mM glutamate), severe injury
Procedure: Laminated cerebellar cortices of the two hemispheres were explanted from a P3, P4, P7 or P8 Wistar rat, cut into small pieces in GBSS with 0.65% D(+)glucose solution, and triturated by a 0.4 mm gauge needle and subsequently pressed through a 125 μm pore size sieve. The obtained microexplants were centrifuged (60×g) 2 times for a medium exchange into serum-free BSA-supplemented START V-medium (Biochrom). Finally, the microexplants were reconstituted in 500 μl STARTV-medium. For culturing, 38 μl of the cell suspension was incubated for 1 hour on a poly-D-lysine-coated cover slip in a 35 mm Petri dish under an atmosphere comprising 5% CO2 in air and 100% humidity at 34° C. Subsequently, the injuring toxins (as described below), NRPs and 1 ml of STARTV-medium were added, and the cultures were evaluated after 2-3 days of culture.
Toxicological and drug administration experiments were designed such that 1/100 parts of toxin and neuroprotective drug were administered simultaneously to the freshly prepared cerebellar microexplants. […]
For statistical analysis of survival, four fields (each field having an area of 0.65 mm^2) of each fixed cerebellar culture with the highest cell densities were chosen, and cells displaying neurite outgrowth were counted (survival assay).

For “REGRRAAPGRAGG-NH2 (listed as Homo sapiens) [SEQ ID NO: 1, 13-mer NRP analogue]”, the “more stem cells migrated than vehicle-treated controls” value [1] was 69.1%, the “more cells migrating in comparison with BSA-vehicle” value [2] was 55.4% and the “rescue effect at further increased concentration” value (JAr cells; 1 nM) was “reduced rescue effect”. The “concentration at which a significant rescue effect was observed” value (JAr cells; 2 hours pre-incubation, TNF-alpha 5 ng/ml and interferon-gamma 5 ng/ml, 48 hours) was 10 fM and the “survival rates, neuroprotection” value (cerebellar microexplants) was 39.1%.

From patent publication US8138304B2, “Neural regeneration peptides and formulations thereof” (Neuren Pharmaceuticals Limited, priority 2005, dated 2012)
